Data taken from article PMC9783881, “Synthesis and Preclinical Evaluation of Small-Molecule Prostate-Specific Membrane Antigen-Targeted Abiraterone Conjugate” (Molecules, 2022).
Where two headings read alike, the source gives them in different places.

Key:
22Rv1 [1] = experiment: Cytotoxicity (CC50) on 22Rv1 cells; format: cell-based; settings: Homo sapiens, 22Rv1, read-out: CC50, 22Rv1
Procedure: The in vitro efficacy study of the PSMA-Abi conjugate included an assessment of its cytotoxic potential towards prostate cancer cell cultures (Table 1). […] Thus, we observed an increase in the efficacy of the conjugate towards the PSMA-expressing line. Additionally, an evaluation in a non-tumor model was performed. The toxicity of both compounds was evaluated on human adult dermal fibroblasts (HDFa); both of the agents in the tested concentrations (0.4–100 µM) were non-toxic for human fibroblasts.
22Rv1 and PC-3 cells were received from the MISIS collection of cell lines (less than ten passages from ATCC stock). All cells were cultured in humidified 37 °C incubators with 5% CO2. All cell lines were tested for the absence of mycoplasma. 22Rv1, androgen-responsive PSMA-positive human prostate carcinoma cells, were cultured in RPMI 1640 media (Gibco) with 10% FBS (Gibco), 1× GlutaMax (Gibco), and 1× Penicillin-Streptomycin (10,000 U/mL, Gibco). PC-3, PSMA-negative human prostate cancer cells, were cultured in DMEM/F12 media (Gibco) with 10% FBS (Gibco), 1× GlutaMax (Gibco), and 1× Penicillin-Streptomycin (10,000 U/mL, Gibco).

[2] = Cytotoxicity on human adult dermal fibroblasts, MTT-test; format: cell-based; settings: human, human adult dermal fibroblasts (HDFa); HDFa, 72 h, MTT
Procedure: Human adult dermal fibroblasts (HDFa). (ATCC) were propagated in DMEM medium (Paneco) supplemented with 10% fetal calf serum (Gibco) and 1% pemicillin/streptomycin in a 5% CO2 atmosphere at 37 °C. Cytotoxicity of PSMA-Abi and AbiAc in fibroblasts were studied using MTT-test. The cells in the exponential growth phase were trypsinized, counted, and seeded at a density of 5000 cells/well in 96-well plate. Cells were incubated with both tested agents at the designated concentrations (0.4–100 μM) for 72 h; then, each well was treated with 20 μL MTT solution in PBS (5 mg/mL) and cells were incubated at least for 3 h, and formazan was dissolved in DMSO. The absorbance was measured at […] and 620 nm using Thermofischer Scientific Multiscan FC. The values for each point were calculated from 6 wells.

22Rv1 [3] = experiment: Single cell ROS measurement with Pt-nanoelectrodes, 22Rv1; format: cell-based, human; settings: 22Rv1, 1 h incubation, IC50 concentration
Procedure: (§1) Commercially available, disk-shaped carbon nanoelectrodes isolated in quartz (ICAPPIC Limited, London, UK) with diameters of 60–100 nm were used to prepare Pt nanoelectrodes for the amperometric detection of intracellular ROS level. Preparation of Pt-nanoelectrodes has been described in detail previously.
(§2) Briefly, a disk-shaped carbon nanoelectrode was etched in a 0.1 M NaOH, 10 mM KCl solution for 20–40 cycles of 10 seconds (from 0 to +2200 mV) to create nanocavities. Electrochemical deposition of platinum in nanocavities was achieved by cycling from 0 to −800 mV with a scan rate of 200 mV s^−1 for 8 to 10 cycles in 2 mM H2PtCl6 solution in 0.1 M hydrochloric acid. […]
(§3) The setup for amperometric measurements included a PC that was connected to a system consisting of an ADC–DAC converter Axon Digidata 1550B (Axon Instruments, Burlingame, CA, USA) and patch-clamp amplifier MultiClamp 700B (Axon Instruments, USA). […] The potential difference between the Pt-nanoelectrode and the reference electrode was recorded with the pClamp 11 software suite (Molecular Devices, Silicon Valley, CA, USA) and processed with Origin 2018 software.
(§4) PC-3 (2.0 × 10^5)/22Rv1 (3.5 × 10^5) cells were seeded in 35 mm Petri dishes, incubated under the conditions described above, and then treated for 24 h. […] Untreated cells were used as a control, which was evaluated at the beginning and at the end of the experiment. […]

PC-3 [4] = experiment: Single cell ROS measurement with Pt-nanoelectrodes, PC-3; format: cell-based, human; settings: PC-3, 1 h incubation, IC50 concentration
Procedure: as §1, §2, §3, §4

22Rv1 cells = experiment: Cell cycle analysis; format: cell-based, human
Procedure: Cell cycle was analyzed in 22Rv1 cells fixed in 70% ethanol with Muse® cell cycle kit. The fixation lasted overnight at −20 °C. Then, cells were collected by centrifugation at 4000 rpm for 10 min and washed with PBS. The cells were resuspended with Muse® Cell Cycle reagent and incubated for 30 min at room temperature in the dark; then, they were counted.

[5] = tested on: 22Rv1 prostate cancer subcutaneous xenograft; experiment: 22Rv1 human tumor xenograft mouse model; format: in vivo, Balb/c nude mice; settings: 22Rv1 xenografts
Procedure: Male, 6–8 week old Balb/c nude mice with body weight range of 20–22 g were purchased from N.N.Blokhin Cancer Research Center. Animals were kept in plastic cages equipped with lids with feeding recesses, air filters, and feed dividers at 2–3 mice per cage.
Mice were injected subcutaneously in the right and left flanks with 1 × 10^7 22Rv1 cells in RPMI-1640 medium 0.2 mL supplemented with 0.2 mL Corning Matrigel® matrix (Corning, NY, USA) in a total volume of 400 μL. When the average size of the tumors reached ~100 mm^3, mice were randomly divided into three groups, with five mice per group, including a vehicle group (1% starch paste) and two treatment groups: PSMA-Abi 500 mg/kg/day and AbiAc 200 mg/kg/day for 14 days. The drugs were administered orally, and all compounds were formulated with 1% starch paste. Following the treatment, the primary tumor size was measured twice weekly with a micro-caliper, and the tumor volume was calculated using the formula: Volume = π/6 × length × width × height. Treatment outcome was based on percentage of tumor growth inhibition (%TGI), defined as the percent difference between the median tumor volumes (MTVs) of mice in the treated and control groups. Percent TGI was calculated using the following formula: %TGI = [1 − (MTV treatment group/MTV control)] 100%. All data are presented as means ± SD. Statistical analyses of in vivo research were performed using SPSS Statistics V. 22.0, comparing continuous variables by non-parametrical Mann–Whitney U. * p ≤ 0.05 was considered as significant in comparison with the control.

PC-3 [6] = tested on: PC-3; design: method as in PMID 29310026; settings: PC-3 cell line; cited from earlier work
[7] = mouse, in vivo; cited from earlier work
PSA level = tested on: PSA level; design: method as in PMID 22995653; settings: cited from earlier work
PSMA = tested on: PSMA; design: method as in PMID 33822606; settings: PSMA ligand; cited from earlier work
[8] = oral x14, PSMA-Abi 500, AbiAc 200 mg/kg/day

## CC(=O)O[C@H]1CC[C@@]2(C)C(=CC[C@@H]3[C@@H]2CC[C@]2(C)C(c4cccnc4)=CC[C@@H]32)C1 [AbiAc, abiraterone acetate, reference compound]
22Rv1 [1]
  CC50: 22.7 ± 3.3 µM
[2]
  CC50 at 72 h: > 100 µM
22Rv1 [3]
  ROS (hydrogen peroxide) level in single cells: significantly increased compared to the control
PC-3 [4]
  ROS (hydrogen peroxide) level in single cells: significantly increased compared to the control
22Rv1 cells; 22Rv1
  S cells: unaffected
22Rv1 cells; 22Rv1, with increasing concentration
  level of G0/G1 cells: increased
22Rv1 cells; with increasing concentration, compared to control cells
  percentage of 22Rv1 cells in the G2/M phase: decreased
[5]; oral x14, PSMA-Abi 500 mg/kg/day, AbiAc 200 mg/kg/day, after the end of treatment
  TGImax (tumor growth inhibition): 78%
[5]; [8]
  TGI, day 15 after start of the treatment: 78%
  TGI, day 18 after start of the treatment: 72%
  TGI, day 22 after start of the treatment: 69%
  Tumor volume (M+SE), day 15: 547±64 mm3
  Tumor volume (M+SE), day 18: 811±72 mm3
  Tumor volume (M+SE), day 22: 997±110 mm3
[5]; start of treatment
  Tumor volume (M+SE), day 0: 91±20 mm3
PC-3 [6]
  CC50: 5.9 ± 0.8 µM
[7]
  LD50: 800 mg/kg

## C[C@]12CC[C@H](O)CC1=CC[C@@H]1[C@@H]2CC[C@]2(C)C(c3cccnc3)=CC[C@@H]12 [abiraterone]
PSA level; chemotherapy-naïve patients
  patients with PSA level decreased by more than 90%: 40%
PSA level; patients after ketoconazole therapy
  patients with PSA level decreased by more than 50%: 33%
PSA level; patients who had not previously received chemotherapy
  patients with PSA level decreased by more than 50%: 85%

## [N-]=[N+]=NCCCNC(=O)[C@H](Cc1ccc(O)cc1)NC(=O)[C@H](Cc1ccccc1)NC(=O)CCC(=O)NCCCCCC(=O)N(CCCC[C@H](NC(=O)N[C@@H](CCC(=O)O)C(=O)O)C(=O)O)Cc1cccc(Cl)c1 [PSMA ligand 1]
PSMA
  IC50: 0.009 ± 0.003 µM
